Results reported in the NIST ThermoML archive (doi:10.1016/j.jct.2015.06.036).

Assay: xn = mol fraction of the nth substance listed
Conditions: 101 kPa, Liquid; for viscosity: Falling or rolling sphere viscometry; for speed of sound: Sing-around technique in a fixed-path interferometer; for mass density: Vibrating tube method

CCCCn1cc[n+](C)c1.F[B-](F)(F)F [1-butyl-3-methylimidazolium tetrafluoroborate] + CO
Conditions	mass density [kg/m3]	speed of sound [m/s]	viscosity [mPa·s]
278.15 K, x1 = 0.0501	893	1239	1.07
278.15 K, x1 = 0.0999	954.2	1294	1.7
278.15 K, x1 = 0.1498	999.7	1341	2.36
278.15 K, x1 = 0.2	1035.5	1383	3.35
278.15 K, x1 = 0.2999	1087.2	1447	6.22
278.15 K, x1 = 0.4008	1122.5	1493	11.1
278.15 K, x1 = 0.4995	1147.9	1527	20.6
278.15 K, x1 = 0.5999	1167.9	1552	35.3
278.15 K, x1 = 0.6991	1183.3	1573	60.2
278.15 K, x1 = 0.8006	1196.4	1589	108
278.15 K, x1 = 0.8494	1201.6	1596	143
278.15 K, x1 = 0.9006	1206.9	1603	196
278.15 K, x1 = 0.9501	1211.4	1611	264
278.15 K, x1 = 1	1215.9	1615	361
288.15 K, x1 = 0.0501	884	1209	0.905
288.15 K, x1 = 0.0999	945.5	1266	1.4
288.15 K, x1 = 0.1498	991.2	1315	1.91
288.15 K, x1 = 0.2	1027.2	1356	2.65
288.15 K, x1 = 0.2999	1079.1	1422	4.73
288.15 K, x1 = 0.4008	1114.6	1468	8.1
288.15 K, x1 = 0.4995	1140.2	1502	14.5
288.15 K, x1 = 0.5999	1160.3	1527	23.7
288.15 K, x1 = 0.6991	1175.9	1548	38.2
288.15 K, x1 = 0.8006	1189	1564	64.8
288.15 K, x1 = 0.8494	1194.3	1571	82.5
288.15 K, x1 = 0.9006	1199.6	1578	110
288.15 K, x1 = 0.9501	1204	1586	143
288.15 K, x1 = 1	1208.5	1590	186
298.15 K, x1 = 0.0501	875	1179	0.779
298.15 K, x1 = 0.0999	936.8	1238	1.18
298.15 K, x1 = 0.1498	982.8	1288	1.58
298.15 K, x1 = 0.2	1018.9	1331	2.16
298.15 K, x1 = 0.2999	1071	1397	3.73
298.15 K, x1 = 0.4008	1106.8	1443	6.18
298.15 K, x1 = 0.4995	1132.5	1477	10.7
298.15 K, x1 = 0.5999	1152.8	1503	16.9
298.15 K, x1 = 0.6991	1168.5	1524	25.8
298.15 K, x1 = 0.8006	1181.7	1540	41.5
298.15 K, x1 = 0.8494	1187.1	1547	51.6
298.15 K, x1 = 0.9006	1192.4	1554	66.9
298.15 K, x1 = 0.9501	1196.9	1562	83.8
298.15 K, x1 = 1	1201.3	1565	105
308.15 K, x1 = 0.0501	866	1150	0.679
308.15 K, x1 = 0.0999	928.1	1211	1.01
308.15 K, x1 = 0.1498	974.3	1262	1.33
308.15 K, x1 = 0.2	1010.6	1305	1.8
308.15 K, x1 = 0.2999	1063.1	1372	3.02
308.15 K, x1 = 0.4008	1099	1418	4.88
308.15 K, x1 = 0.4995	1124.9	1454	8.17
308.15 K, x1 = 0.5999	1145.3	1479	12.7
308.15 K, x1 = 0.6991	1161.1	1500	18.5
308.15 K, x1 = 0.8006	1174.5	1517	28.4
308.15 K, x1 = 0.8494	1179.9	1524	34.4
308.15 K, x1 = 0.9006	1185.3	1531	43.3
308.15 K, x1 = 0.9501	1189.8	1538	53.3
308.15 K, x1 = 1	1194.2	1542	64.8
318.15 K, x1 = 0.0501	857	1121	0.6
318.15 K, x1 = 0.0999	919.4	1184	0.873
318.15 K, x1 = 0.1498	965.8	1236	1.14
318.15 K, x1 = 0.2	1002.4	1280	1.52
318.15 K, x1 = 0.2999	1055.1	1348	2.51
318.15 K, x1 = 0.4008	1091.3	1394	3.96
318.15 K, x1 = 0.4995	1117.4	1430	6.45
318.15 K, x1 = 0.5999	1137.9	1456	9.83
318.15 K, x1 = 0.6991	1153.8	1477	13.7
318.15 K, x1 = 0.8006	1167.3	1493	20.4
318.15 K, x1 = 0.8494	1172.7	1501	24.2
318.15 K, x1 = 0.9006	1178.2	1508	30
318.15 K, x1 = 0.9501	1182.7	1515	36
318.15 K, x1 = 1	1187.2	1519	42.7
